Results: article PMC4510133 (PLoS ONE, 2015)
Where “and” joins values, the source holds several entries; their conditions need not be identical. Equal values may be shown once. Read-outs that look alike come from different tables or passages of the source.

What was measured:
spinach Rubisco [1] = target: T1, spinach Rubisco (Spinacia oleracea, UniProt P00875); assay: Radiolabelled [3H]-(±)-ABA binding assay (saturation and competition); design: Commercially available Rubisco from spinach (Sigma-Aldrich); catalogue # R8000; purchased Sigma-Aldrich R8000; settings: 25 nM [3H]-(±)-ABA
Protocol: A fresh aliquot of this Rubisco was subsequently dissolved in binding buffer (50 mM bicine, 15 mM MgCl2, 20 mM NaCl, pH 7.9) and placed on ice. The total volume for each assay sample was 30 μL. Protein solution (30 μg protein) was mixed with [^3H]-(±)-ABA (specific activity 37 Ci mmol^-1 radiolabelled: non-radiolabelled ratio 1.8:1) at the indicated concentrations in the presence and absence of 500 μM (+)-ABA, incubated at RT for 30 minutes. Samples (15 μL) from each reaction were transferred into SPN columns (G-biosciences), to which 100 μL of cold OrgoSol^TM buffer (chilled at -20°C) was added. The columns were spun at 10,000 x g for 10 s and the wash repeated once. The matrix of each SPN column was then removed and placed in scintillation vials containing Aqasol^TM scintillation fluid and soaked for at least 24 hours prior to counting radioactivity using a Beckman Coulter Multi-Purpose Scintillation Counter. Control samples not containing the protein, but treated with [^3H]-(±)-ABA, were also prepared and values subtracted from experimental samples. Signal corresponding to specific [^3H]-(±)-ABA binding was calculated from the difference between samples with [^3H]-(±)-ABA and those containing 1000-fold excess of non-radiolabelled (+)-ABA. Each sample was replicated 5–10 times and readings averaged. Competition was performed as described above, with the concentration of [^3H]-(±)-ABA at 25 nM in all samples, and non-radiolabeled (+)-ABA added at the indicated concentrations. The same procedure was applied using non-radiolabeled (-)-ABA, PA (phaseic acid), and trans-ABA. Values obtained for the same experiment washed with a 10,000 fold excess of unlabelled (±)-ABA were subtracted to account for any non-specific binding.

spinach Rubisco [2] = target: T1, spinach Rubisco; assay: Isothermal titration calorimetry; settings: for stoichiometry (n) by ITC: 20°C, Independent binding model
ABA-receptor (PYL5) = settings: PYL5 ref 48; read-out: Kd by ITC; cited from earlier work
spinach Rubisco [3] = target: T1, spinach Rubisco; assay: Rubisco activation (carbamylation), initial rate analysis with non-activated enzyme; assay type: biochemical; design: Commercially available Rubisco from spinach (Sigma-Aldrich); catalogue # R8000; purchased Sigma-Aldrich R8000
Protocol: Commercially available Rubisco from spinach (Sigma-Aldrich; catalogue # R8000; S1 Fig; specific activity 0.05 units / mg) was dissolved in a buffer containing 15 mM MgCl2 and 25 mM NaHCO3 at pH 8.0 for activation. Each assay (total volume, 1.0 mL) contained 50 mM Bicine (pH 8.0), 15 mM MgCl2, 10 mM NaCl, 5 mm DTT, 5 mM phosphocreatine, 5 mM ATP, 5 mM phosphoenolpyruvate, and 25 mM NaHCO3. This mixture was prepared before each set of experiments. Five minutes before initiating the reaction with the addition of activated Rubisco, the following were added: RuBP at the indicated concentrations), 0.4 mM NADH, 20 units mL-^-1 of glyceraldehyde-3-phosphate dehydrogenase, 20 units mL-^-1 of 3-phosphoglycerate kinase, and 2 units mL^-1 of creatine phosphokinase. Following the addition of activated Rubisco to a final concentration of 0.3 mg mL^-1, the NADH concentration was measured spectrophotometrically (λ = 340 nm) at 5 s intervals for 5 min. Absorbance values were converted to NADH concentrations using an extinction coefficient of 6.22 mM^-1. Reaction rates were evaluated from the slope of absorbance vs. time curves and plotted against concentration of RuBP. […] The non-activated Rubisco was then pre-incubated on ice for at least 10 minutes with or without the indicated concentrations of (+)-ABA, and the reactions initiated and monitored as described above. […]

activated Rubisco = settings: read-out: Km, activated Rubisco-RuBP complex; activated Rubisco ref 13; cited from earlier work
non-activated Rubisco [4] = target: non-activated Rubisco; design: method as in earlier work; settings: 1 unit / mg ref 49, read-out: Kd by ITC; cited from earlier work
non-activated Rubisco [5] = target: non-activated Rubisco; design: method as in PMID 6417133; settings: non-activated Rubisco ref 13; read-out: KD, radiolabelled binding assay; cited from earlier work

CC1=CC(=O)CC(C)(C)[C@]1(O)/C=C/C(C)=C\C(=O)O [(-)-ABA]
Competition: displacement of [3H]-(±)-ABA by non-radiolabeled compound (spinach Rubisco [1]): equally effective as competitors

CC1=CC(=O)CC(C)(C)[C@@]1(O)/C=C/C(C)=C/C(=O)O [trans-(+)-ABA]
Competition: displacement of [3H]-(±)-ABA by non-radiolabeled compound (spinach Rubisco [1]): ineffective as competitors

Abscisic acid [(+)-ABA]
stoichiometry (n) by ITC (spinach Rubisco [2]): 19.9 and 19
Kd (ABA-receptor (PYL5)): 1200 nM
Competition: displacement of [3H]-(±)-ABA by non-radiolabeled compound (spinach Rubisco [1]): equally effective as competitors
effect on initial rate (activation) (spinach Rubisco [3]; 100-250 μM (+)-ABA, 7 mM NaHCO3, S3 Fig, no effect on equilibrium rate (catalysis)): inhibitory effect
potency on Rubisco activation versus Rubisco catalysis (spinach Rubisco [3]; ratio of Ki values): more than 10 fold

CC(=C/C(=O)O)/C=C/[C@]1(O)[C@@]2(C)CO[C@]1(C)CC(=O)C2 [PA, phaseic acid]
Competition: displacement of [3H]-(±)-ABA by non-radiolabeled compound (spinach Rubisco [1]): ineffective as competitors

O=C(COP(=O)(O)O)[C@H](O)[C@H](O)COP(=O)(O)O [RuBP, ribulose-1,5-bisphosphate]
Kd (spinach Rubisco [2]): 31.4 µM
stoichiometry (n) by ITC (spinach Rubisco [2]): 2.5
Km (activated Rubisco): 21 µM
Kd (non-activated Rubisco [4]): 300 nM
Kd (non-activated Rubisco [5]): 21 nM
